Structures can show the parent of a compound that is named as a salt. Where two headings read alike, the source gives them in different places.
Biological target: T1, IκBα-kinase complex (Homo sapiens, UniProt O14920+O15111)
T1 construct: endogenous in cells; host or cells: HeLa S3 cell extract, S100 fraction; ammonium sulfate precipitation and Superose-6 size exclusion
Experiment: IkB-Kinase ELISA;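 also: substrate phosphopeptide captured on Protein-A plates, detected with Streptavidin-HRP and TMB absorbance at 450 nm, activity read from a synthetic phosphopeptide standard curve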
Format: biochemical

[1] = activated IκBα kinase complex from HeLa S3 cell extracts, ELISA, read-out: IkB-kinase IC50

T1 sequence (O14920 whole entry): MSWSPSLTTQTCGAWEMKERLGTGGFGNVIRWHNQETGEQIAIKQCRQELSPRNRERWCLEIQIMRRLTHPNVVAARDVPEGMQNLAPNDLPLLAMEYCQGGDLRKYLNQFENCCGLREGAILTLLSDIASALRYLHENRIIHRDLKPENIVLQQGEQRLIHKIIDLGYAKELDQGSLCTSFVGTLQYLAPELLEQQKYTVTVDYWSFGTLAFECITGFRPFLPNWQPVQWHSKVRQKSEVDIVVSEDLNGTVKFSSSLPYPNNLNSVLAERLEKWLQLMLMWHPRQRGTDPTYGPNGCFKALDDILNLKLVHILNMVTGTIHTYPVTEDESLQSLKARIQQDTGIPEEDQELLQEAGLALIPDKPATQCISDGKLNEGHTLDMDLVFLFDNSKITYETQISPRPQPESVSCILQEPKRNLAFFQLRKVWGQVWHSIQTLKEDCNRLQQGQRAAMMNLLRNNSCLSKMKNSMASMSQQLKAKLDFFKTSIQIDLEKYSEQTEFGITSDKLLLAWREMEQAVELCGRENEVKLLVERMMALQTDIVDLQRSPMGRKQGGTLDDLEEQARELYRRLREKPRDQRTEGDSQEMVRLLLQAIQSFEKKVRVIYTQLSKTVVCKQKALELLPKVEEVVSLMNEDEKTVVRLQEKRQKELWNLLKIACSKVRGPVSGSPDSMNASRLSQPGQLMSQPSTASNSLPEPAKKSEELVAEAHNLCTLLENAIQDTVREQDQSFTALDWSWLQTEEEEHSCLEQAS
T1 sequence (O15111 whole entry): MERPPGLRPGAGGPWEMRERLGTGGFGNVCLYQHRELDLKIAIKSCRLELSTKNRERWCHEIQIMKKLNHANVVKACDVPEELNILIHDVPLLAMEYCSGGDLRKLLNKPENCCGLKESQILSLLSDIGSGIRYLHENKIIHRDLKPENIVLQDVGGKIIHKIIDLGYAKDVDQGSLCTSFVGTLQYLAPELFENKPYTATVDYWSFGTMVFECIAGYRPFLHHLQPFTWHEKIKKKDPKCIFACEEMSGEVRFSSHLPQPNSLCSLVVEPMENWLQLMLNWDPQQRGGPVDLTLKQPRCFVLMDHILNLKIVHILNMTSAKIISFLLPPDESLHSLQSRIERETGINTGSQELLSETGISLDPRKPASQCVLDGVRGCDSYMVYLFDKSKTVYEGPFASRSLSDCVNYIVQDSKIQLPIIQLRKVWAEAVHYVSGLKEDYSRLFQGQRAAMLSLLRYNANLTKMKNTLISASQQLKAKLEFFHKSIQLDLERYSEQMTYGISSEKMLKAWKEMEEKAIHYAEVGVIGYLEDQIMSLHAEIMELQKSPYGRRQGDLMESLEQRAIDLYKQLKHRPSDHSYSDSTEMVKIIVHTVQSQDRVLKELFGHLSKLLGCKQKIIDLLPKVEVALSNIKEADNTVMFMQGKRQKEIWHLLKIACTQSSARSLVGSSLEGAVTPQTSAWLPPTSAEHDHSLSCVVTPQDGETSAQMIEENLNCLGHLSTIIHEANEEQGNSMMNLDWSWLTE
T1 sequence (Q9Y6K9 whole entry partner): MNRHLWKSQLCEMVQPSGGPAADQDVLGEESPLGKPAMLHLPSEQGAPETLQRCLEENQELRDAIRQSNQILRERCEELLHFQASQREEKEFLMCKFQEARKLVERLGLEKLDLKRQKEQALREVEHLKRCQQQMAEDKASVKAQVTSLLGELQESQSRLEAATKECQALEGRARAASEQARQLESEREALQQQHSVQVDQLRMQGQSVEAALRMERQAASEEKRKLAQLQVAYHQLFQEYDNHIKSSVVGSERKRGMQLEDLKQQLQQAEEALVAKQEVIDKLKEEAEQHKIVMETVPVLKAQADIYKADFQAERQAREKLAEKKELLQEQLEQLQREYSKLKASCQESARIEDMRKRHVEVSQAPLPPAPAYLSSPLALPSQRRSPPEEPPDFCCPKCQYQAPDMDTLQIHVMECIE

Compound | IC50 [1] | IC50 (IkB-kinase IC50)
Brc1ccc2[nH]c3cnccc3c2c1 [Example 1] | 0.4 µM | –
CS(=O)(=O)n1c2ccc(Br)cc2c2ccncc21 [Example 10] | 0.4 µM | –
Cn1c2ccc(Br)cc2c2ccncc21 [Example 11] | 0.7 µM | –
O=[N+]([O-])c1cc(Cl)cc2c1[nH]c1cnccc12 [Example 14] | 4 µM | –
O=C(N1CCOCC1)n1c2ccc(Br)cc2c2ccncc21 [Example 17] | 5 µM | –
CCOC(=O)Cn1c2ccc(Cl)cc2c2ccncc21 [Example 18] | 23 µM | –
OCCn1c2ccc(Cl)cc2c2ccncc21 [Example 19] | 3 µM | –
NC(=O)Cn1c2ccc(Cl)cc2c2ccncc21 [Example 22] | 15 µM | –
Cc1nccc2c1[nH]c1cc(OCC(=O)OC(C)(C)C)ccc12 [Example 25] | 31 µM | –
Cc1nccc2c1[nH]c1cc(OCc3ccccc3)ccc12 [Example 26] | 12 µM | –
CCOc1ccc2c(c1)[nH]c1c(C)nccc12 [Example 27] | 4.5 µM | –
Cc1nccc2c1[nH]c1ccc(Br)cc12 [Example 28] | 11 µM | –
CC(=O)Oc1ccc2c(c1)[nH]c1c(C)nccc12 [Example 29] | 40 µM | –
Fc1ccc2c(c1)[nH]c1cnccc12 [Example 31] | 3.3 µM | –
COc1cc2[nH]c3c(C)nccc3c2cc1Br [Example 32] | 4.6 µM | –
Fc1cc2[nH]c3cnccc3c2cc1Cl [Example 34] | 1 µM | –
COc1ccc2c([nH]c3cnccc32)c1Cl [Example 36, trifluoroacetate] | 1.4 µM | –
COc1c(Cl)cc2c([nH]c3cnccc32)c1Cl [Example 37, trifluoroacetate] | 0.15 µM | –
Oc1c(Cl)cc2c([nH]c3cnccc32)c1Cl [Example 38] | 11 µM | –
CCOc1c(Cl)cc2c([nH]c3cnccc32)c1Cl [Example 39] | 0.1 µM | –
Fc1cc2[nH]c3cnccc3c2cc1Cl [Example 40, trifluoroacetate] | 2 µM | –
CNc1cc(Cl)cc2c1[nH]c1cnccc12 [Example 43, trifluoroacetate] | 1 µM | –
CN(C)c1cc(Cl)cc2c1[nH]c1cnccc12 [Example 44, trifluoroacetate] | – | 2 µM
CS(=O)(=O)Nc1cc(Cl)cc2c1[nH]c1cnccc12 [Example 45, trifluoroacetate] | 8.3 µM | –
CC(=O)N(C)c1cc(Cl)cc2c1[nH]c1cnccc12 [Example 48, trifluoroacetate] | 4 µM | –
COCC(=O)Nc1cc(Cl)cc2c1[nH]c1cnccc12 [Example 51, trifluoroacetate] | 0.6 µM | –
COc1ccc(C(=O)Nc2cc(Cl)cc3c2[nH]c2cnccc23)cc1 [Example 53, 7-chloro-9-(4-methoxybenzoxylamino)-β-carboline trifluoroacetate] | 1.4 µM | –

Compound | IC50 [1] | IC50 (IkB-kinase IC50)
CC(C)CC(=O)Nc1cc(Cl)cc2c1[nH]c1cnccc12 [Example 55, trifluoroacetate] | 0.8 µM | –
CC(C)(C)C(=O)Nc1cc(Cl)cc2c1[nH]c1cnccc12 [Example 57] | 4.3 µM | –
O=C(Oc1c(Cl)cc2c([nH]c3cnccc32)c1Cl)N1CCOCC1 [Example 59] | 3.2 µM | –
O=C(Nc1cc(Cl)cc2c1[nH]c1cnccc12)c1cccnc1 [Example 60, N-(6-Chloro-9H-β-carbolin-8-yl)-nicotinamide] | 0.052 µM | –
O=C(Nc1cc(Cl)cc2c1[nH]c1cnccc12)c1ccccc1F [Example 61] | 0.94 µM | –
COc1cc2[nH]c3cnccc3c2cc1[N+](=O)[O-] [Example 63] | 1.3 µM | –
O=C(c1cccnc1)N1CCn2c3cnccc3c3cc(Cl)cc1c32 [Example 69] | 3 µM | –
COc1ccc(C(=O)Nc2cc(Cl)cc3c2[nH]c2cnccc23)cc1OC [Example 71] | 3 µM | –
O=C(Nc1cc(Cl)cc2c1[nH]c1cnccc12)c1ccc(C(F)(F)F)cc1 [Example 74] | 3.8 µM | –
Cc1oc(C(F)(F)F)cc1C(=O)Nc1cc(Cl)cc2c1[nH]c1cnccc12 [Example 77] | 4.4 µM | –
Cn1nc(C(C)(C)C)cc1C(=O)Nc1cc(Cl)cc2c1[nH]c1cnccc12 [Example 78] | 2.3 µM | –
O=C(Nc1cc(Cl)cc2c1[nH]c1cnccc12)c1ccc(F)c(F)c1 [Example 82, N-(6-Chloro-9H-β-carbolin-8-yl)-3,4-difluoro-benzamide] | 0.15 µM | –
O=C(COCc1ccccc1)Nc1cc(Cl)cc2c1[nH]c1cnccc12 [Example 90] | 1.4 µM | –
O=C1COc2c(Cl)cc3c([nH]c4cnccc43)c2N1 [Example 91] | 2.3 µM | –
CCN(CC)CCOc1c(Cl)cc2c([nH]c3cnccc32)c1Cl [Example 93] | 1.3 µM | –
COc1c(N)cc2c([nH]c3cnccc32)c1Cl [Example 95] | 1 µM | –
Clc1cc2c([nH]c3cnccc32)c(Cl)c1OCC1CCCCC1 [Example 96] | – | 1.3 µM
O=C(COc1ccccc1)Nc1cc(Cl)cc2c1[nH]c1cnccc12 [Example 100] | 1.5 µM | –
CC(=O)Oc1c(Cl)cc2c([nH]c3cnccc32)c1Cl [Example 101] | 1.8 µM | –
O=C(Nc1cc(Cl)cc2c1[nH]c1cnccc12)c1cccnc1O [Example 104] | 1 µM | –
Cc1cc(C(=O)Nc2cc(Cl)cc3c2[nH]c2cnccc23)n(C)n1 [Example 106] | 0.6 µM | –
O=C(Cc1ccccn1)Nc1cc(Cl)cc2c1[nH]c1cnccc12 [Example 108] | 2.1 µM | –
O=C(Nc1cc(Cl)cc2c1[nH]c1cnccc12)c1cccc(=O)[nH]1 [Example 109] | 2.1 µM | –
COc1c(Cl)cc2c([nH]c3cnccc32)c1NC(=O)c1ccc(F)cc1 [Example 114] | 2.1 µM | –
O=C(Nc1c(O)c(Cl)cc2c1[nH]c1cnccc12)c1cccnc1 [Example 115] | 4.6 µM | –
O=C(Nc1cc(Cl)cc2c1[nH]c1cnccc12)c1ccc(Cl)cc1 [Example 116] | 1.8 µM | –

The remaining compounds from weak to strong by IC50 [1], led by results:

IC50 [1] | Compound | IC50 (IkB-kinase IC50)
0.93 µM | O=S(=O)(Nc1cc(Cl)cc2c1[nH]c1cnccc12)c1ccc(F)cc1 [Example 112] | –
0.9 µM | O=C(Nc1cc(Cl)cc2c1[nH]c1cnccc12)c1cccs1 [Example 76] | –
0.9 µM | CN(C)CC(=O)Nc1cc(Cl)cc2c1[nH]c1cnccc12 [Example 98] | –
0.8 µM | Nc1cc(Cl)cc2c1[nH]c1cnccc12 [Example 15] | –
0.75 µM | O=C(Nc1cc(Cl)cc2c1[nH]c1cnccc12)c1ccccn1 [Example 87] | –
0.7 µM | COc1cc2[nH]c3cnccc3c2cc1Cl [Example 66] | –
0.7 µM | O=C(Cc1cccs1)Nc1cc(Cl)cc2c1[nH]c1cnccc12 [Example 86] | –
0.69 µM | O=C(Cc1cccnc1)Nc1cc(Cl)cc2c1[nH]c1cnccc12 [Example 97] | –
0.67 µM | O=C(Nc1cc(Cl)cc2c1[nH]c1cnccc12)C1CCCC1 [Example 117] | –
0.64 µM | COc1c([N+](=O)[O-])cc2c([nH]c3cnccc32)c1Cl [Example 94] | –
0.64 µM | O=C(Nc1cc(Cl)cc2c1[nH]c1cnccc12)c1ccc(Br)cc1 [Example 113] | –
0.6 µM | COc1cccc(C(=O)Nc2cc(Cl)cc3c2[nH]c2cnccc23)c1 [Example 52, 7-chloro-9-(3-methoxybenzoxylamino)-β-carboline trifluoroacetate] | –
0.58 µM | N#Cc1cccc(C(=O)Nc2cc(Cl)cc3c2[nH]c2cnccc23)c1 [Example 72] | –
0.57 µM | O=C(Nc1cc(Cl)cc2c1[nH]c1cnccc12)c1ccc2c(c1)OCO2 [Example 89] | –
0.54 µM | O=C1CC[C@H](C(=O)Nc2cc(Cl)cc3c2[nH]c2cnccc23)O1 [Example 111] | –
0.5 µM | COc1c(Cl)cc2c([nH]c3cnccc32)c1N [Example 67] | –
0.4 µM | CC(=O)n1c2ccc(Br)cc2c2ccncc21 [Example 2] | –
0.4 µM | N#Cc1ccc(C(=O)Nc2cc(Cl)cc3c2[nH]c2cnccc23)cc1 [Example 73] | –
0.4 µM | Clc1cc2c([nH]c3cnccc32)c(Cl)c1OC1CCCC1 [Example 92] | –

IC50 [1] | Compound | IC50 (IkB-kinase IC50)
0.4 µM | CC(C)(C)c1cc(C(=O)Nc2cc(Cl)cc3c2[nH]c2cnccc23)n(Cc2ccccc2)n1 [Example 107] | –
0.38 µM | O=C(Nc1cc(Cl)cc2c1[nH]c1cnccc12)c1ccccc1F [Example 62] | –
0.36 µM | COCOc1c(Cl)cc2c([nH]c3cnccc32)c1Cl [Example 70] | –
0.33 µM | CC(C)(C)C(=O)Oc1c(Cl)cc2c([nH]c3cnccc32)c1Cl [Example 58] | –
0.31 µM | Cc1cc(C(=O)Nc2cc(Cl)cc3c2[nH]c2cnccc23)no1 [Example 80] | –
0.31 µM | O=C1CC[C@@H](C(=O)Nc2cc(Cl)cc3c2[nH]c2cnccc23)N1 [Example 103] | –
0.29 µM | O=C(Nc1cc(Cl)cc2c1[nH]c1cnccc12)c1ccco1 [Example 75] | –
0.28 µM | O=C(Nc1cc(Cl)cc2c1[nH]c1cnccc12)c1cnccn1 [Example 88] | –
0.27 µM | O=C(Nc1cc(Cl)cc2c1[nH]c1cnccc12)c1ccncc1 [Example 56] | –
0.25 µM | Clc1cc2c([nH]c3cnccc32)c(Cl)c1OCc1ccccc1 [Example 81] | –
0.2 µM | Clc1cc(Cl)c2[nH]c3cnccc3c2c1 [Example 9] | –
0.2 µM | CC(C)COc1c(Cl)cc2c([nH]c3cnccc32)c1Cl [Example 85] | –
0.18 µM | O=C(Nc1cc(Cl)cc2c1[nH]c1cnccc12)c1ccno1 [Example 79] | –
0.16 µM | COc1c(Cl)cc2c([nH]c3cnccc32)c1NC(=O)c1cccnc1 [Example 68, N-(6-Chloro-7-methoxy-9H-β-carbolin-8-yl)-nicotinamide] | –
0.11 µM | Clc1cc2c([nH]c3cnccc32)c(Cl)c1OCC1CC1 [Example 64] | –
0.1 µM | Clc1cc2c([nH]c3cnccc32)c(Cl)c1OCC1CC1 [Example 65] | –
0.1 µM | CC(C)Oc1c(Cl)cc2c([nH]c3cnccc32)c1Cl [Example 84] | –
0.09 µM | O=C1CC[C@H](C(=O)Nc2cc(Cl)cc3c2[nH]c2cnccc23)N1 [Example 99] | –
0.06 µM | O=C(Nc1cc(Cl)cc2c1[nH]c1cnccc12)c1ccc(Cl)nc1 [Example 83, 6-Chloro-N-(6-chloro-9H-β-carbolin-8-yl)-nicotinamide] | –

From patent publication US7348336B2 (Sanofi-Aventis Deutschland GmbH, priority 2000, dated 2008)
